{"source": "patent US7468274B2", "about": "“Single cell analysis of HIV replication capacity and drug resistance” (priority 2004, dated 2008)", "key": {"[1]": {"tested_on": "pseudotyped reporter viruses carrying the NL4-3 gag-pol sequence (wild type)", "format": "cell-based, HIV-1"}, "[2]": {"tested_on": "Pt2019-1-1 patient-derived drug-resistant HIV-1 isolate", "format": "cell-based"}, "[3]": {"tested_on": "Pt2019-1-2 patient-derived drug-resistant HIV-1 isolate", "format": "cell-based"}, "[4]": {"details": "in vivo; cited from earlier work"}}, "note": "Where “and” joins values, the source holds several entries; their conditions need not be identical. Equal values may be shown once. Entries after “also recorded” stand apart in the source; their conditions may differ. Read-outs that look alike come from different tables or passages of the source."}
{"compound": "Cc1cn([C@H]2C=C[C@@H](CO)O2)c(=O)[nH]c1=O", "note": "[d4T, stavudine]", "values": [{"measurement": "% GFP-positive target cells", "setting": "[1]", "value": "6.83% and 7.04% and 5.74%"}, {"measurement": "Cmax relative to IC50 measured in this system", "setting": "[1]", "value": "close to or below; also recorded: below"}, {"measurement": "Drug resistance index (replication with drug / without drug)", "setting": "[1]", "value": 0.325}, {"measurement": "Mean % GFP-positive target cells", "setting": "[1]", "value": 6.54, "unit": "%"}]}
{"compound": "Nc1ccn([C@@H]2CS[C@H](CO)O2)c(=O)n1", "note": "[3TC, lamivudine]", "values": [{"measurement": "Drug Resistance Index", "setting": "[2]", "value": 1}, {"measurement": "Replication Index", "setting": "[2]; Pt2019-1-1, concn 12.5 (head prints p.M)", "value": 0.42}, {"measurement": "Drug Resistance Index", "setting": "[2]; Pt2019-1-1, concn 12.5 (head prints p.M; text 12.5 μM)", "value": 0.8}, {"measurement": "Drug Resistance Index", "setting": "[1]", "value": 0.002}, {"measurement": "Replication Index (replication capacity index x drug resistance index)", "setting": "[1]", "value": 0.002}, {"measurement": "Replication Index", "setting": "[3]; concn 12.5 (head prints p.M)", "value": 0.00053}, {"measurement": "Drug Resistance Index", "setting": "[3]; concn 12.5 (head prints p.M; text 12.5 μM)", "value": 0.001}]}
{"compound": "O=C1Nc2ccc(Cl)cc2[C@@](C#CC2CC2)(C(F)(F)F)O1", "note": "[EFV, efavirenz]", "values": [{"measurement": "Cmin/IC50 ratio (published Cmin to IC50 measured in this system)", "setting": "[1]", "value": "> 1,000 fold"}]}
{"compound": "Cc1cn([C@H]2C[C@H](N=[N+]=[N-])[C@@H](CO)O2)c(=O)[nH]c1=O", "note": "[AZT, zidovudine]", "values": [{"measurement": "% GFP-positive target cells", "setting": "[1]", "value": "7.61% and 6.70% and 7.59% and 6.71%"}, {"measurement": "Drug resistance index (replication with drug / without drug)", "setting": "[1]", "value": 0.356}, {"measurement": "Mean % GFP-positive target cells", "setting": "[1]", "value": 7.15, "unit": "%"}]}
{"compound": "O=c1[nH]cnc2c1ncn2[C@H]1CC[C@@H](CO)O1", "note": "[ddI, didanosine]", "values": [{"measurement": "Cmax", "setting": "[4]", "value": 6.78, "unit": "µM"}, {"measurement": "Cmax relative to IC50 measured in this system", "setting": "[1]", "value": "close to or below"}, {"measurement": "Cmax relative to IC90 measured in this system", "setting": "[1]", "value": "below"}]}
